Patent US20150105252A1, “SUBSTITUTED PYRAZOLES AS HERBICIDES” (E I DU PONT DE NEMOURS AND COMPANY, priority 2013, published 2015)

Tests used:
foxtail, green = experiment: Test C preemergence; format: in vivo, Setaria viridis; details: for Plant response rating (scale of 0 to 100), Foxtail, Green: Preemergence, 250 g ai/ha; for Foxtail, Green plant response rating / Plant response rating, Foxtail, Green: preemergence; for Plant response rating, Foxtail, Green: 62 g ai/ha, scale 0 to 100, 0 = no effect, 100 = complete control
Excerpt: Seeds of plant species selected from blackgrass (Alopecurus myosuroides), ryegrass, Italian (Italian ryegrass, Lolium multiflorum), wheat (winter wheat, Triticum aestivum), galium (catchweed bedstraw, Galium aparine), corn (Zea mays), crabgrass, large (large crabgrass, Digitaria sanguinalis), foxtail, giant (giant foxtail, Setaria faberii), johnsongrass (Sorghum halepense), lambsquarters (Chenopodium album), morningglory (Ipomoea coccinea), nutsedge, yellow (yellow nutsedge, Cyperus esculentus), pigweed (redroot pigweed, Amaranthus retroflexus), ragweed (common ragweed, Ambrosia elation), soybean (Glycine max), barnyardgrass (Echinochloa crus-galli), oilseed rape (Brassica napus), waterhemp (common waterhemp, Amaranthus rudis), oat, wild (wild oat, Avena fatua), kochia (Kochia scoparia), Surinam grass (Brachiaria decumbens), foxtail, green (green foxtail, Setaria viridis), goosegrass (Eleusine indica), bromegrass, downy (downy bromegrass, Bromus tectorum), nightshade (eastern black nightshade, Solanum ptycanthum), cocklebur (common cocklebur, Xanthium strumarium), cupgrass, woolly (woolly cupgrass, Eriochloa villosa), bermudagrass (Cynodon dactylon), sunflower, (common oilseed sunflower, Helianthus annuus), Russian thistle (Salsola kali), and velvetleaf (Abutilon theophrasti) were planted into a blend of loam soil and sand and treated preemergence with test chemicals formulated in a non-phytotoxic solvent mixture which included a surfactant.
At the same time, plants selected from these crop and weed species and also chickweed (common chickweed, Stellaria media), canarygrass (littleseed canarygrass, Phalaris minor), and deadnettle (henbit deadnettle, Lamium amplexicaule), were planted in pots containing Redi-Earth® planting medium (Scotts Company, 14111 Scottslawn Road, Marysville, Ohio 43041) comprising spaghnum peat moss, vermiculite, wetting agent and starter nutrients and treated with postemergence applications of test chemicals formulated in the same manner. Plants ranged in height from 2 to 18 cm (1- to 4-leaf stage) for postemergence treatments. Treated plants and controls were maintained in a greenhouse for 13 to 15 days, after which time all species were compared to controls and visually evaluated. Plant response ratings, summarized in Table C, are based on a scale of 0 to 100 where 0 is no effect and 100 is complete control. A dash (-) response means no test result.

windgrass = experiment: Test C postemergence; format: in vivo, Apera spica-venti; details: 250 g ai/ha, scale 0 to 100 (0 no effect, 100 complete control)
corn = experiment: Test F preemergence; format: in vivo, Zea mays
Excerpt: (§1) Seeds of plant species selected from corn (Zea mays), soybean (Glycine max), velvetleaf (Abutilon theophrasti), lambsquarters (Chenopodium album), wild poinsettia (Euphorbia heterophylla), pigweed, palmer (palmer pigweed, Amaranthus palmeri), common waterhemp (Amaranthus rudis), surinam grass (Brachiaria decumbens), large crabgrass (Digitaria sanguinalis), crabgrass, Brazil (Brazilian crabgrass, Digitaria horizontalis), fall panicum (Panicum dichotomiflorum), giant foxtail (Setaria faberii), green foxtail (Setaria viridis), goosegrass (Eleusine indica), johnsongrass (Sorghum halepense), common ragweed (Ambrosia elation), barnyardgrass (Echinochloa crus-galli), southern sandbur (Cenchrus echinatus), arrowleaf sida (Sida rhombifolia), Italian ryegrass (Lolium multiflorum), dayflower, VA (Virginia (VA) dayflower, Commelina virginica), field bindweed (Convolvulus arvensis), cocklebur (common cocklebur, Xanthium strumarium), morningglory (Ipomoea coccinea), nightshade (eastern black nightshade, Solanum ptycanthum), kochia (Kochia scoparia), yellow nutsedge (Cyperus esculentus), and hairy beggarticks (Bidens pilosa), were planted into a silt loam soil and treated preemergence with test chemicals formulated in a non-phytotoxic solvent mixture which included a surfactant.
(§2) At the same time, plants from these crop and weed species and also horseweed (Canada horseweed, Conyza canadensis), smartweed (ladysthumb smartweed, Polygonum persicaria), waterhemp_RES1, (ALS & Triazine resistant common waterhemp, Amaranthus rudis), and waterhemp_RES2, (ALS & HPPD resistant common waterhemp, Amaranthus rudis) were treated with postemergence applications of test chemicals formulated in the same manner. Plants ranged in height from 2 to 18 cm for postemergence treatments (1- to 4-leaf stage). Treated plants and controls were maintained in a greenhouse for 14 to 21 days, after which time all species were compared to controls and visually evaluated. Plant response ratings, summarized in Table F, are based on a scale of 0 to 100 where 0 is no effect and 100 is complete control. A dash (-) response means no test result.

soybean = experiment: Test F preemergence; format: in vivo, Glycine max
Excerpt: as §1, §2

dayflower, VA = experiment: Test F preemergence; format: in vivo, Commelina virginica
Excerpt: as §1, §2

kochia = experiment: Test A preemergence; format: in vivo, Kochia scoparia
Procedure, shortened: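 Both timings tested concurrently in loam/sand soil: preemergence by directed soil spray, postemergence on plants of 2–10 cm at the one- to two-leaf stage. Greenhouse holding period was approximately 10 days before visual injury assessment (0–100, 0 = no effect).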

[1] = 31 g ai/ha, scale 0 to 100 (0 no effect, 100 complete control), 13 to 15 days
[2] = 125 g ai/ha, scale 0 to 100, 0 is no effect, 100 is complete control
[3] = Preemergence, 31 g ai/ha, scale 0 to 100
[4] = Preemergence, 62 g ai/ha, scale 0 to 100
[5] = Preemergence, 125 g ai/ha, scale 0 to 100
[6] = preemergence, 8 g ai/ha, scale 0 to 100, 100 is complete control
[7] = preemergence, 16 g ai/ha, scale 0 to 100, 100 is complete control
[8] = Preemergence, 250 g ai/ha, scale 0 to 100
[9] = 125 g ai/ha, visual injury, 0 to 100 scale, approx. 10 days
[10] = 500 g ai/ha, visual injury after approx. 10 days, 0 to 100 scale (0 no effect, 100 complete control)

Structure (SMILES): Cc1cc(C(=O)NCC(F)(F)F)nn1Cc1ccnc(C(F)(F)F)c1 [Compound 74]
- Plant response rating (scale of 0 to 100), Foxtail, Green (foxtail, green): 95
- Foxtail, Green plant response rating (foxtail, green; [1]): 85
- Plant response rating, Foxtail, Green (foxtail, green; 13 to 15 days): 95
- Foxtail, Green plant response rating (foxtail, green; [2]): 95
- Plant response rating, Windgrass (windgrass): 5

Structure (SMILES): CCc1cc(-c2ccc(C(F)(F)F)cc2)nn1Cc1ccnc(C(F)(F)F)c1 [Compound 110]
- Plant response rating, Corn (corn; [3]): 0
- Plant response rating, Corn (corn; [4]): 0
- Plant response rating, Corn (corn; [5]): 15
- Plant response rating, Corn (corn; [6]): 0
- Plant response rating, Corn (corn; [7]): 0
- Plant response rating, Soybean (soybean; [3]): 15
- Plant response rating, Soybean (soybean; [4]): 0
- Plant response rating, Soybean (soybean; [6]): 0
- Plant response rating, Dayflower, VA (dayflower, VA; [3]): 5
- Plant response rating, Dayflower, VA (dayflower, VA; [4]): 10
- Plant response rating, Dayflower, VA (dayflower, VA; [5]): 65
- Plant response rating, Dayflower, VA (dayflower, VA; [6]): 0
- Plant response rating, Dayflower, VA (dayflower, VA; [7]): 0

Structure (SMILES): CCc1cc(C(=O)NCC(F)(F)F)nn1Cc1ccnc(Br)c1 [Compound 224]
- Plant response rating, Corn (corn; [4]): 0
- Plant response rating, Corn (corn; [5]): 20
- Plant response rating, Corn (corn; [8]): 40
- Plant response rating, Soybean (soybean; [4]): 25
- Plant response rating, Soybean (soybean; [5]): 20
- Plant response rating, Soybean (soybean; [8]): 50
- Plant response rating, Dayflower, VA (dayflower, VA; [4]): 0
- Plant response rating, Dayflower, VA (dayflower, VA; [5]): 40
- Plant response rating, Dayflower, VA (dayflower, VA; [8]): 85

Structure (SMILES): CCc1cc(C(=O)NOC(C)C)nn1Cc1ccnc(OC(F)F)c1 [Compound 126]
- Kochia plant response rating (kochia; [9]): 100
- Kochia plant response rating (kochia; [10]): 100

Structure (SMILES): CCOc1cc(C(=O)NCC(F)(F)F)nn1Cc1ccnc(OC(F)F)c1 [Compound 128]
- Kochia plant response rating (kochia; [9]): 100
- Kochia plant response rating (kochia; [10]): 100

Structure (SMILES): CCCNC(=O)c1cc(OCC)n(Cc2ccnc(OC(F)F)c2)n1 [Compound 136]
- Kochia plant response rating (kochia; [9]): 100
- Kochia plant response rating (kochia; [10]): 100

Structure (SMILES): CCCNC(=O)c1cc(CC)n(Cc2cccc(OC(F)(F)F)c2)n1 [Compound 27]
- Plant response rating, Windgrass (windgrass): 45

Structure (SMILES): CCONC(=O)c1cc(CC)n(Cc2cccc(OC(F)(F)F)c2)n1 [Compound 72]
- Plant response rating (scale of 0 to 100), Foxtail, Green (foxtail, green): 98
- Foxtail, Green plant response rating (foxtail, green; [1]): 30
- Plant response rating, Foxtail, Green (foxtail, green; 13 to 15 days): 85
- Foxtail, Green plant response rating (foxtail, green; [2]): 90
- Plant response rating, Windgrass (windgrass): 30

Structure (SMILES): CCc1cc(C(=O)NCC(F)(F)F)nn1Cc1cccc(OC(F)(F)F)c1 [Compound 20]
- Plant response rating, Windgrass (windgrass): 45

Structure (SMILES): CCCc1cc(C(=O)NCC(F)(F)F)nn1Cc1ccnc(OC(F)F)c1 [Compound 127]
- Kochia plant response rating (kochia; [9]): 100
- Kochia plant response rating (kochia; [10]): 100

Structure (SMILES): CCCc1cc(C(=O)NC2CC2)nn1Cc1ccnc(OC(F)F)c1 [Compound 205]
- Kochia plant response rating (0 to 100 scale) (kochia; 125 g ai/ha, visual injury approx. 10 days after treatment): 100

Structure (SMILES): CCCc1cc(C(=O)NC(C)C)nn1Cc1cc(C(F)(F)F)nn1C [Compound 201]
- Plant response rating, Corn (corn; [4]): 10
- Plant response rating, Corn (corn; [5]): 20
- Plant response rating, Corn (corn; [8]): 60
- Plant response rating, Corn (corn; [7]): 0
- Plant response rating, Soybean (soybean; Preemergence, 16 g ai/ha, scale 0 to 100): 0
- Plant response rating, Soybean (soybean; [5]): 40
- Plant response rating, Soybean (soybean; [8]): 40
- Plant response rating, Soybean (soybean; [7]): 0
- Plant response rating, Dayflower, VA (dayflower, VA; [4]): 0
- Plant response rating, Dayflower, VA (dayflower, VA; [5]): 35
- Plant response rating, Dayflower, VA (dayflower, VA; [8]): 65
- Plant response rating, Dayflower, VA (dayflower, VA; [7]): 0

Structure (SMILES): CCc1cc(C(=O)NOC(C)C)nn1Cc1cccc(OC(F)(F)F)c1 [Compound 70]
- Plant response rating (scale of 0 to 100), Foxtail, Green (foxtail, green): 98
- Foxtail, Green plant response rating (foxtail, green; [1]): 15
- Plant response rating, Foxtail, Green (foxtail, green; 13 to 15 days): 95
- Foxtail, Green plant response rating (foxtail, green; [2]): 95
- Plant response rating, Windgrass (windgrass): 50
